The source of these data is US12514928B2, “Herboxidiene antibody-drug conjugates and methods of use” (Eisai R&D Management Co., Ltd., priority 2018, dated 2026).

One data set has as its system THP1.1. Put plainly: Herboxidiene splicing modulator cell potency, CTGlo-ATS, THP1.1, 72 h. In kind it is cell-based. As to conditions: for CTGIo-ATS GMean LD50 (nM) 72 h THP1.1 / CTGIo-ATS Mean MinResponse % 72 h THP1.1: payload; for GI50: read-out: CTGIo-ATS GMean GI50 (nM) 72 h THP1.1.
Data set [1] is described as follows: Chemical stability of ADC payload in Mcilvane buffer pH 5.5. The format is physicochemical. To be noted: payload 20 μM, pH 5.5, 37° C.; for half-life at 20 μM: McIlvaine (citrate-phosphate) buffer, read-out: Stability Mean Stability t½ pH 5.5 (converted); for Stability Mean Stability % pH 5.5 t 24 h: % remaining at 24 h. On the procedure:
3.5.3 Chemical Stability of ADC Payload
Herboxidiene splicing modulators were incubated in Mcilvane (Citrate-Phosphate) buffer, pH 5.5 (Boston Bioproducts; #BB-2466) at a final concentration of 20 μM (less than 0.5% DMSO from stock solution). The herboxidiene splicing modulator solution and the internal standard were pipetted into 96-well plates, ran on UPLC (Waters Acquity H class), and analyzed for initial chromatographic signal (t=0). The column was a Waters UPLC HSS T3 1.8 μm 2.1×50 mm column (#186003538). A gradient of mobile phase A from 95% to 10% was employed over 1 min, where A was 0.1% formic acid in water and mobile phase B was 0.1% formic acid in acetonitrile (flow rate 0.9 mL/min). The remainder of the herboxidiene splicing modulator solution was kept in a plate shaker at 37° C. (Eppendorf ThermoMixer). Sample analyses by UPLC were repeated at 24, 72, and 96 hours post-incubation at 37° C. The area ratio response of the herboxidiene splicing modulator and internal standard was determined for three time points: time 0, day 1, and either day 3 or day 4. Time 0 was set to 100. The area ratio responses of the later time points were compared to time 0. Percent remaining was calculated as follows: (Area Ratio day X/Area Ratio time 0)*100=% remaining. The slope of the line was calculated in Excel comparing the log of % remaining and time point.

The next data set has as its target SF3b complex (Homo sapiens, UniProt O75533+Q7RTV0). Nature of the data set: Payload binding to the SF3b complex (SF3B1 binding). To be noted: SF3B1 (WT), HELA.2, read-out: SPA-ATS GMean IC50 (nM) SF3B1 (WT) HELA.2. The method, then:
Exemplary herboxidiene spliceosome modulator payloads used in the preparation of ADCs were profiled. Payloads were evaluated for binding to the SF3b complex, in vitro splicing activity, and ability to inhibit cell growth.

A further data set relates to NCIH1650.1. Nature of the data set: Herboxidiene splicing modulator cell potency, CTGlo-ATS, NCIH1650.1, 72 h. To be noted: for CTGIo-ATS GMean LD50 (nM) 72 h NCIH1650.1 / CTGIo-ATS Mean MinResponse % 72 h NCIH1650.1: payload; for GI50: read-out: CTGIo-ATS GMean GI50 (nM) 72 h NCIH1650.1. In kind it is cell-based.
The next data set relates to Ad2.1. Nature of the data set: In vitro splicing (IVS) assay, qPCR-IVS-ATS, Ad2.1 substrate, HELA.2. In kind it is biochemical. To be noted: payload, read-out: qPCR-IVS-ATS GMean IC50 (nM) Ad2.1 HELA.2. Background: Real-time PCR tracks product formation cycle by cycle.
The nature of data set [2]: Caco-2 permeability of ADC payload. To be noted: human; for efflux ratio at 2 h, 10 μM: B-A/A-B, read-out: ER; for Papp A→B at 2 h, 10 μM / Papp B→A at 2 h, 10 μM: payload at 10 μM; for Papp A→B at 2 h, 10 μM: apical to basolateral, read-out: Permeability Mean Caco-2 A-B Perm; for Papp B→A at 2 h, 10 μM: head incomplete (column between A-B and ER). In kind it is in vitro ADME. On the procedure:
3.5.2 Caco-2 Permeability of ADC Payload
Caco-2 cells were cultured for 21 days in transwell 24-well plates at 37° C., 95% humidity, 5% CO2. Integrity of cell monolayer was confirmed by TEER (transepithelial electrical resistance) and Lucifer yellow. Payloads were spiked in duplicate at 10 μM, separately, on both sides of the cell monolayer. Permeability rates from the apical to basolateral (A-B) direction and the basolateral to apical (B-A) direction were determined by sampling aliquots from both chambers immediately after treatment (t=0) and following incubation for 2 hours. Samples were protein precipitated with organic solvent containing internal standard and analyzed by LC-MS/MS (SCI EX; API 5500). The area ratio responses of payload/internal standard over time in both directions were used to generate permeability (cm/sec) values. Efflux ratio was calculated by dividing B-A/A-B. Control compounds for low and high permeability and efflux behaved as expected.
In general terms: Passage across Caco-2 layers is used to estimate intestinal permeability.

Another data set deals with Ad2.2 pre-mRNA. Nature of the data set: In vitro splicing (IVS) assay with HeLa nuclear extract, RT-qPCR of spliced product. The format is biochemical. To be noted: payload, HELA.2, read-out: qPCR-IVS-ATS GMean IC50 (nM) Ad2.2 HELA.2. The method, then: 2.1 In Vitro Splicing (IVS)
To evaluate payload activity in a cell-free system, an in vitro splicing assay was performed. The payloads were incubated with nuclear extracts and pre-mRNA substrate minigenes.
HeLa nuclear extract preparation: HeLa S3 cell pellets were resuspended in hypotonic buffer (10 mM HEPES pH 7.9, 1.5 mM MgCl2, 10 mM KCl, 0.2 mM PMSF, 0.5 mM DTT) and the suspension was brought up to a total of 5 packed cell volume (PCV). After centrifugation, the supernatant was discarded, and the cells were brought up to 3 PCV with hypotonic buffer and incubated on ice for 10 min. Cells were lysed using a dounce homogenizer and then centrifuged. The supernatant was discarded, and the pellet was resuspended with […] packed nuclear volume (PNV) of low salt buffer (20 mM HEPES pH 7.9, 1.5 mM MgCl2, 20 mM KCl, 0.2 mM EDTA, 25% glycerol, 0.2 mM PMSF, 0.5 mM DTT), followed by 1/2 PNV of high salt buffer (same as low salt buffer except 1.4 M KCl). The nuclei were gently mixed for 30 min before centrifuging. The supernatant (nuclear extract) was then dialyzed into storage buffer (20 mM HEPES pH 7.9, 100 mM KCl, 0.2 mM EDTA, 20% glycerol, 0.2 mM PMSF, 0.5 mM DTT). Protein concentration was determined using NanoDrop 8000 UV-Vis spectrophotometer (ThermoFisher Scientific).
IVS: All Ad2-derived sequences (Pellizzoni et al. (1998) Cell 95(5):615-24) were cloned into pcDNA3.1(+) vector (Promega) using 5′ EcoRI and 3′ Xbal restriction sites. The plasmids were linearized using Xbal and used as DNA templates in in vitro transcription reactions. The FtzΔi intron-less plasmid (Luo and Reed (1999) 96(26):14937-42) was linearized using EcoRI. All RNAs were in vitro transcribed and then purified using MEGAScript T7 (Invitrogen) and MegaClear (Invitrogen) kits, respectively. For splicing reactions using Ad2 variant pre-mRNAs, […] were prepared using 8 μg nuclear extracts prepared from HeLa S3, 2 ng pre-mRNA, 0.2 ng FTZΔi, and varying concentrations of compounds or DMSO. After a 15 min pre-incubation at 30° C., 1 μL splicing activation buffer (0.5 mM ATP, 20 mM creatine phosphate, 1.6 mM MgCl2) was added, and the reactions were incubated for 90 min at 30° C. The reactions were then quenched with 13 μL DMSO, and 25 nL was used for RT-qPCR. RT-qPCR reactions were prepared using TaqMan RNA-to-CT 1-step kit (Life Technologies), RNA from splicing reactions, Ad2 (forward: […]; reverse: […]; probe: CTGTTGGGCTCGCGGTTG) and Ftz (forward: […]; reverse: […]; probe: […]) mRNA primer-probe sets. Prism 7 (Graphpad) was used for non-linear regression curve fitting of the formed spliced product and normalized to the control (DMSO) sample.

The conditions of data set [3]: in vivo; cited from earlier work.

`CO[C@H]([C@@H](C)[C@H]1O[C@]1(C)C[C@H](C)/C=C/C=C(\C)[C@H]1O[C@@H](CC(=O)O)C[C@@H](OC(=O)N2CCNCC2)[C@@H]1C)[C@@H](C)O` [Compound H1, 2-((2R,4R,5S,6S)-6-((S,2E,4E)-7-((2R,3R)-3-((2R,3R,4R)-4-hydroxy-3-methoxypentan-2-yl)-2-methyloxiran-2-yl)-6-methylhepta-2,4-dien-2-yl)-5-methyl-4-((piperazine-1-carbonyl)oxy)tetrahydro-2H-pyran-2-yl)acetic acid]: in the data set with THP1.1, the “CTGIo-ATS GMean LD50 (nM) 72 h THP1.1” value is reported as 697.273 nM, the “CTGIo-ATS Mean MinResponse % 72 h THP1.1” value is reported as −84.238% and the GI50 stood at 114 nM. Moreover, in data set [1], the half-life at 20 μM is 84 h and the “Stability Mean Stability % pH 5.5 t 24 h” value was 79%. Also, the concentration for half-maximal inhibition (IC50) at SF3b complex came out at 11.7 nM. Further, in the data set on NCIH1650.1, the “CTGIo-ATS GMean LD50 (nM) 72 h NCIH1650.1” value is on record as over 10000 nM, the “CTGIo-ATS Mean MinResponse % 72 h NCIH1650.1” value amounted to 10.179% and the GI50 amounted to 182 nM. Moreover, the half-inhibitory concentration (IC50) in the data set on Ad2.1 is 72.6 nM. Further, in data set [2], the efflux ratio at 2 h, 10 μM came out at 1.27; the Papp A→B at 2 h, 10 μM came to 0.263 ×10⁻⁶ cm/s; the Papp B→A at 2 h, 10 μM was 0.334 ×10⁻⁶ cm/s. Also, in the data set with Ad2.2 pre-mRNA, the IC50 came to 33.7 nM.

Take `CO[C@H]([C@@H](C)[C@H]1O[C@]1(C)C[C@H](C)/C=C/C=C(\C)[C@H]1O[C@@H](CC(=O)N[C@@H](CCCOC(=O)N2CCNCC2)C(=O)O)CC[C@@H]1C)[C@@H](C)O` [Compound H4, (S)-2-(2-((2R,5S,6S)-6-((S,2E,4E)-7-((2R,3R)-3-((2R,3R,4R)-4-hydroxy-3-methoxypentan-2-yl)-2-methyloxiran-2-yl)-6-methylhepta-2,4-dien-2-yl)-5-methyltetrahydro-2H-pyran-2-yl)acetamido)-5-((piperazine-1-carbonyl)oxy)pentanoic acid]: in the data set with THP1.1, the “CTGIo-ATS GMean LD50 (nM) 72 h THP1.1” value was found to be 5337.399 nM, the “CTGIo-ATS Mean MinResponse % 72 h THP1.1” value is listed as −40.902% and the GI50 is 649 nM. Moreover, on SF3b complex, the IC50 amounted to 14.5 nM. In addition, in the data set on NCIH1650.1, the “CTGIo-ATS GMean LD50 (nM) 72 h NCIH1650.1” value was 2575.18 nM, the “CTGIo-ATS Mean MinResponse % 72 h NCIH1650.1” value turned out to be 728.583% and the GI50 was 464 nM. The IC50 in the data set with Ad2.1 worked out at 31.6 nM. Further, the Papp A→B at 2 h, 10 μM in data set [2] came out at 19.3 ×10⁻⁶ cm/s. Further, in the data set with Ad2.2 pre-mRNA, the IC50 was found to be 29.6 nM.

For the compound `CO[C@H]([C@@H](C)[C@H]1O[C@]1(C)C[C@H](C)/C=C/C=C(\C)[C@H]1O[C@@H](CNC(=O)CCCCCOC(=O)N2CCNCC2)CC[C@@H]1C)[C@@H](C)O` [Compound H5, 6-((((2R,5S,6S)-6-((S,2E,4E)-7-((2R,3R)-3-((2R,3R,4R)-4-hydroxy-3-methoxypentan-2-yl)-2-methyloxiran-2-yl)-6-methylhepta-2,4-dien-2-yl)-5-methyltetrahydro-2H-pyran-2-yl)methyl)amino)-6-oxohexyl piperazine-1-carboxylate], in the data set on THP1.1, the “CTGIo-ATS GMean LD50 (nM) 72 h THP1.1” value is listed as 3.415 nM, the “CTGIo-ATS Mean MinResponse % 72 h THP1.1” value is −103.352% and the GI50 was found to be 0.433 nM. In data set [1], the half-life at 20 μM is over 168 h and the “Stability Mean Stability % pH 5.5 t 24 h” value is on record as over 100%. Also, the IC50 on SF3b complex was found to be 12.9 nM. In addition, in the data set with NCIH1650.1, the “CTGIo-ATS GMean LD50 (nM) 72 h NCIH1650.1” value was over 10000 nM, the “CTGIo-ATS Mean MinResponse % 72 h NCIH1650.1” value is given as −25.308% and the GI50 was 0.407 nM. For the same compound, the concentration for half-maximal inhibition (IC50) in the data set with Ad2.1 turned out to be 30.3 nM. Besides, in data set [2], the efflux ratio at 2 h, 10 μM was 22.7; the Papp A→B at 2 h, 10 μM came out at 1.04 ×10⁻⁶ cm/s; the Papp B→A at 2 h, 10 μM was determined as 23.6 ×10⁻⁶ cm/s. Also, in the data set on Ad2.2 pre-mRNA, the IC50 came to 17.8 nM.

“Ipilimumab: fully human anti-CTLA4 antibody, IgG1”: the plasma half-life in data set [3] is 288 to 336 h.

For the compound “tremelimumab: fully human anti-CTLA4 antibody, IgG2”, in data set [3], the plasma half-life entry is recorded as “approximately 22 days”.

In general, GI50 refers to the concentration at which growth is held to half of that of the control. For orientation: IC50 means the concentration that gives 50% inhibition. As usually defined, the Papp B→A is how fast a substance crosses the layer from the basolateral side.
